From patent publication US20240116985A1, “STAPLED PEPTIDES AND METHODS THEREOF” (priority 2020, published 2024)
Values after ≈ are worked out from the molar mass of the structure shown. Like-named read-outs stand apart in the source and are kept apart here.

Key:
Solubility in PBS = format: physicochemical
Outline: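 PBS sample ultracentrifuged; supernatant run on HPLC vs. 50 μM peptide in DMSO standard. Solubility = (PBS peak area / DMSO peak area) × 50 uM.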

[1] = target: T1, beta-catenin/TCF4 engagement (Homo sapiens, UniProt P35222); experiment: Nano-BRET target engagement assay (B-cat-Halo & TCF4-Luc in HEK293 cells); format: cell-based; conditions: for inhibition at 10 µM: HEK293, @ 10 uM, read-out: NanoBRET % inh @ 10 uM
T1 construct: expressed in transfected cells; host or cells: HEK293
T1 sequence (P35222 1-781): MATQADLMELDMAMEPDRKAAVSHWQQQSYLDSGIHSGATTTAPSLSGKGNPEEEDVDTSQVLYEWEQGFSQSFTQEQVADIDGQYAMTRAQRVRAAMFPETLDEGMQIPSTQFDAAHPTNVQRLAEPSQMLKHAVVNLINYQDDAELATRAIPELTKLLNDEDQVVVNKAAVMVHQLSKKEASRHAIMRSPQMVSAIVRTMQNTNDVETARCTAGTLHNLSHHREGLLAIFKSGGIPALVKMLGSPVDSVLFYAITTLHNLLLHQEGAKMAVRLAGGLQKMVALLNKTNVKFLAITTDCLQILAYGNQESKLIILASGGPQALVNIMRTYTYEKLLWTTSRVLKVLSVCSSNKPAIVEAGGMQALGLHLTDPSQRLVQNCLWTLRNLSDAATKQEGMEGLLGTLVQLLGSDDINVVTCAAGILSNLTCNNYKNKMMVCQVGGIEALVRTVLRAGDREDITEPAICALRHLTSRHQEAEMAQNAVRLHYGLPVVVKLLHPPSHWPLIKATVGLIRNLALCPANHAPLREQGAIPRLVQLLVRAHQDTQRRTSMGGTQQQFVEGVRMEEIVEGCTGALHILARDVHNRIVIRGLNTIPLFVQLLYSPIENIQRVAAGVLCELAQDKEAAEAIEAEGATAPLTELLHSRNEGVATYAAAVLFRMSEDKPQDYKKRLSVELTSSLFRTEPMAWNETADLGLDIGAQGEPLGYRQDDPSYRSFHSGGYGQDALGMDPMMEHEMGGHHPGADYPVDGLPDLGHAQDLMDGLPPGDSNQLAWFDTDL

CHI Log D procedure = format: physicochemical; conditions: pH 7.4, CHI Log D
[2] = target: T2, full-length beta-Catenin (Uniprot ID P35222) (Homo sapiens, UniProt P35222); experiment: Fluorescence polarization IC50 (beta-catenin / 5FAM-TCF4 10-53 competition); format: binding; conditions: read-out: beta-Catenin FP IC50
T2 construct: 10 nM full-length beta-Catenin (Uniprot ID P35222)
T2 sequence (P35222 1-781): T1 sequence (P35222 1-781)

Row | SMILES | Solubility (Solubility in PBS; Solubility (uM)) [µM] | inhibition at 10 µM [1] [%] | IC50 ([1]; read-out: NanoBRET Abs IC50) [µM] | IC50 ([1]; read-out: NanoBRET IC50) [µM] | chromatographic logD (CHI Log D procedure) | IC50 [2] [nM] | Solubility (Solubility in PBS) [µM]
1 | CC(=O)N1CCC[C@]12CC=CCCCC1(CCCC=CCCCOC(=O)N3CC[C@@](C(=O)N[C@@H](Cc4ccccc4Cl)C(=O)N[C@@H](Cc4csc5ccccc45)C(=O)N[C@@H](Cc4c[nH]cn4)C(N)=O)(C3)NC(=O)[C@H](CC(N)=O)NC(=O)[C@H](Cc3ccccc3)NC(=O)[C@H](C)NC(=O)[C@H](C)NC(=O)[C@H](CC(=O)O)NC(=O)[C@H](CC(=O)O)NC1=O)NC(=O)[C@H](CC(C)(C)C)NC(=O)[C@H](CC(=O)O)NC2=O (stereo partly drawn) [I-784, Ac-PL3-Asp-Npg-B5-Asp-Asp-Ala-Ala-Phe-Asn-PyrS2-2C1F-BztA-His-NH2] | 21 (≈ 41.1 µg/mL) | 35.1 | 14.5 | 12.1 | 2.29 | 6 | 
2 | CC(=O)N1CCC[C@]12CC=CCCCC1(CCCC=CCCCOC(=O)N3CC[C@@](C(=O)N[C@@H](Cc4ccsc4)C(=O)N[C@@H](Cc4csc5ccccc45)C(N)=O)(C3)NC(=O)[C@H](CC(N)=O)NC(=O)[C@H](Cc3ccccc3)NC(=O)[C@H](C)NC(=O)[C@H](C)NC(=O)[C@H](CC(=O)O)NC(=O)[C@H](CC(=O)O)NC1=O)NC(=O)[C@H](CC(C)(C)C)NC(=O)[C@H](CC(=O)O)NC2=O (stereo partly drawn) [I-785, Ac-PL3-Asp-Npg-B5-Asp-Asp-Ala-Ala-Phe-Asn-PyrS2-3Thi-BztA-NH2] | 42 (≈ 75.2 µg/mL) | 31 | 21.6 |  | 2.28 | 6 | 
3 | CC(=O)N1CCC[C@]12CC=CCCCC1(CCCC=CCCCOC(=O)N3CC[C@@](C(=O)N[C@@H](Cc4ccsc4)C(=O)N[C@@H](Cc4csc5ccccc45)C(N)=O)(C3)NC(=O)[C@H](CC(N)=O)NC(=O)[C@H](Cc3ccccc3)NC(=O)[C@H](C)NC(=O)[C@H](C)NC(=O)[C@H](CCC(=O)O)NC(=O)[C@H](CC(=O)O)NC1=O)NC(=O)[C@H](CC(C)(C)C)NC(=O)[C@H](CC(=O)O)NC2=O (stereo partly drawn) [I-786, Ac-PL3-Asp-Npg-B5-Asp-Glu-Ala-Ala-Phe-Asn-PyrS2-3Thi-BztA-NH2] | 39 (≈ 70.4 µg/mL) |  | 29.3 | 17.1 | 2.3 | 8 | 
4 | CC(=O)N1CCC[C@]12CC=CCCCC1(CCCC=CCCCOC(=O)N3CC[C@@](C(=O)N[C@@H](Cc4ccsc4)C(=O)N[C@@H](Cc4csc5ccccc45)C(=O)N[C@@H](Cc4c[nH]cn4)C(N)=O)(C3)NC(=O)[C@H](CC(N)=O)NC(=O)[C@H](Cc3ccccc3)NC(=O)[C@H](C)NC(=O)[C@H](C)NC(=O)[C@H](CC(=O)O)NC(=O)[C@H](CC(=O)O)NC1=O)NC(=O)[C@H](CCC(C)C)NC(=O)[C@H](CC(=O)O)NC2=O (stereo partly drawn) [I-788, Ac-PL3-Asp-hLeu-B5-Asp-Asp-Ala-Ala-Phe-Asn-PyrS2-3Thi-BztA-His-NH2] | 31 (≈ 59.7 µg/mL) |  | 21.6 |  | 2.17 | 5 | 
5 | CC(=O)N1CCC[C@]12CC=CCCCC1(CCCC=CCCCOC(=O)N3CC[C@@](C(=O)N[C@@H](Cc4ccsc4)C(=O)N[C@@H](Cc4cccc5ccccc45)C(=O)N[C@@H](Cc4c[nH]cn4)C(N)=O)(C3)NC(=O)[C@H](CC(N)=O)NC(=O)[C@H](Cc3ccccc3)NC(=O)[C@H](C)NC(=O)[C@H](C)NC(=O)[C@H](CC(=O)O)NC(=O)[C@H](CC(=O)O)NC1=O)NC(=O)[C@H](CC(C)(C)C)NC(=O)[C@H](CC(=O)O)NC2=O (stereo partly drawn) [I-789, Ac-PL3-Asp-Npg-B5-Asp-Asp-Ala-Ala-Phe-Asn-PyrS2-3Thi-1NapA-His-NH2] |  | 9.7 | > 20 |  | 2.08 | 19 | 50 (≈ 96.1 µg/mL)
6 | CC(=O)N1CCC[C@]12CC=CCCCC1(CCCC=CCCCOC(=O)N3CC[C@@](C(=O)N[C@@H](Cc4ccsc4)C(=O)N[C@@H](Cc4ccc5ccccc5c4)C(=O)N[C@@H](Cc4c[nH]cn4)C(N)=O)(C3)NC(=O)[C@H](CC(N)=O)NC(=O)[C@H](Cc3ccccc3)NC(=O)[C@H](C)NC(=O)[C@H](C)NC(=O)[C@H](CC(=O)O)NC(=O)[C@H](CC(=O)O)NC1=O)NC(=O)[C@H](CC(C)(C)C)NC(=O)[C@H](CC(=O)O)NC2=O (stereo partly drawn) [I-790, Ac-PL3-Asp-Npg-B5-Asp-Asp-Ala-Ala-Phe-Asn-PyrS2-3Thi-2NapA-His-NH2] |  |  | > 20 |  | 2.12 | 24 | 50 (≈ 96.1 µg/mL)
7 | CC(=O)N1CCC[C@]12CC=CCCCC1(CCCC=CCCCOC(=O)N3CC[C@@](C(=O)N[C@@H](Cc4ccsc4)C(=O)N[C@@H](Cc4c[nH]c5ccccc45)C(=O)N[C@@H](Cc4c[nH]cn4)C(N)=O)(C3)NC(=O)[C@H](CC(N)=O)NC(=O)[C@H](Cc3ccccc3)NC(=O)[C@H](C)NC(=O)[C@H](C)NC(=O)[C@H](CC(=O)O)NC(=O)[C@H](CC(=O)O)NC1=O)NC(=O)[C@H](CC(C)(C)C)NC(=O)[C@H](CC(=O)O)NC2=O (stereo partly drawn) [I-792, Ac-PL3-Asp-Npg-B5-Asp-Asp-Ala-Ala-Phe-Asn-PyrS2-3Thi-Trp-His-NH2] | 33 (≈ 63 µg/mL) |  | > 20 |  | 1.96 | 20 | 
8 | CC(=O)N1CCC[C@]12CC=CCCCC1(CCCC=CCCCOC(=O)N3CC[C@@](C(=O)N[C@@H](Cc4csc5ccccc45)C(=O)N[C@@H](Cc4csc5ccccc45)C(=O)N[C@@H](Cc4c[nH]cn4)C(N)=O)(C3)NC(=O)[C@H](CC(N)=O)NC(=O)[C@H](Cc3ccccc3)NC(=O)[C@H](C)NC(=O)[C@H](C)NC(=O)[C@H](CC(=O)O)NC(=O)[C@H](CC(=O)O)NC1=O)NC(=O)[C@H](CC(C)(C)C)NC(=O)[C@H](CC(=O)O)NC2=O (stereo partly drawn) [I-793, Ac-PL3-Asp-Npg-B5-Asp-Asp-Ala-Ala-Phe-Asn-PyrS2-BztA-BztA-His-NH2] |  |  | > 20 |  | 2.39 | 14 | 10 (≈ 19.8 µg/mL)
9 | CC(=O)N1CCC[C@]12CC=CCCCC1(CCCC=CCCCOC(=O)N3CC[C@@](C(=O)N[C@@H](Cc4cccc5ccccc45)C(=O)N[C@@H](Cc4csc5ccccc45)C(=O)N[C@@H](Cc4c[nH]cn4)C(N)=O)(C3)NC(=O)[C@H](CC(N)=O)NC(=O)[C@H](Cc3ccccc3)NC(=O)[C@H](C)NC(=O)[C@H](C)NC(=O)[C@H](CC(=O)O)NC(=O)[C@H](CC(=O)O)NC1=O)NC(=O)[C@H](CC(C)(C)C)NC(=O)[C@H](CC(=O)O)NC2=O (stereo partly drawn) [I-794, Ac-PL3-Asp-Npg-B5-Asp-Asp-Ala-Ala-Phe-Asn-PyrS2-1NapA-BztA-His-NH2] | 40 (≈ 78.8 µg/mL) |  | 26.4 |  | 2.38 | 19 | 
10 | CC(=O)N1CCC[C@]12CC=CCCCC1(CCCC=CCCCOC(=O)N3CC[C@@](C(=O)N[C@@H](Cc4ccsc4)C(=O)N[C@@H](Cc4csc5ccccc45)C(=O)N[C@@H](Cc4c[nH]cn4)C(N)=O)(C3)NC(=O)[C@H](CC(C)C)NC(=O)[C@H](Cc3ccccc3)NC(=O)[C@H](C)NC(=O)[C@H](C)NC(=O)[C@H](CC(=O)O)NC(=O)[C@H](CC(=O)O)NC1=O)NC(=O)[C@H](CC(C)(C)C)NC(=O)[C@H](CC(=O)O)NC2=O (stereo partly drawn) [I-802, Ac-PL3-Asp-Npg-B5-Asp-Asp-Ala-Ala-Phe-Leu-PyrS2-3Thi-BztA-His-NH2] |  |  | 4.8 |  | 2.3 | 6 | 10 (≈ 19.3 µg/mL)
11 | CC(=O)N1CCC[C@]12CC=CCCCC1(CCCC=CCCCOC(=O)N3CC[C@@](C(=O)N[C@@H](Cc4ccsc4)C(=O)N[C@@H](Cc4csc5ccccc45)C(=O)N[C@@H](Cc4c[nH]cn4)C(N)=O)(C3)NC(=O)[C@H](CCO)NC(=O)[C@H](Cc3ccccc3)NC(=O)[C@H](C)NC(=O)[C@H](C)NC(=O)[C@H](CC(=O)O)NC(=O)[C@H](CC(=O)O)NC1=O)NC(=O)[C@H](CC(C)(C)C)NC(=O)[C@H](CC(=O)O)NC2=O (stereo partly drawn) [I-804, Ac-PL3-Asp-Npg-B5-Asp-Asp-Ala-Ala-Phe-Hse-PyrS2-3Thi-BztA-His-NH2] | 44 (≈ 84.2 µg/mL) |  | 13.5 |  | 2.11 | 5 | 
12 | CC(=O)N1CCC[C@]12CC=CCCCC1(CCCC=CCCCOC(=O)N3CC[C@@](C(=O)N[C@@H](Cc4ccsc4)C(=O)N[C@@H](Cc4csc5ccccc45)C(=O)N[C@@H](CCC(N)=O)C(N)=O)(C3)NC(=O)[C@H](CCCNC(N)=O)NC(=O)[C@H](Cc3ccccc3)NC(=O)[C@H](C)NC(=O)[C@H](C)NC(=O)[C@H](CC(=O)O)NC(=O)[C@H](CC(=O)O)NC1=O)NC(=O)[C@H](CC(C)(C)C)NC(=O)[C@H](CC(=O)O)NC2=O (stereo partly drawn) [I-805, Ac-PL3-Asp-Npg-B5-Asp-Asp-Ala-Ala-Phe-Cit-PyrS2-3Thi-BztA-Gln-NH2] |  |  | 18.5 |  | 1.98 | 5 | 50 (≈ 98.1 µg/mL)
